SMILES strings stand for the structures.

Broadly, the inhibition is the drop in the measured response relative to a control, in per cent. One may read the IC50 as the point on the concentration scale where inhibition reaches its midpoint. Read a high IC50 as a need for much substance.

One assay deals with T1, Human 5-lipoxygenase (Homo sapiens, UniProt P09917).
T1 construct: purchased Cayman 60402; host or cells: insect cells
T1 sequence (P09917 1-674): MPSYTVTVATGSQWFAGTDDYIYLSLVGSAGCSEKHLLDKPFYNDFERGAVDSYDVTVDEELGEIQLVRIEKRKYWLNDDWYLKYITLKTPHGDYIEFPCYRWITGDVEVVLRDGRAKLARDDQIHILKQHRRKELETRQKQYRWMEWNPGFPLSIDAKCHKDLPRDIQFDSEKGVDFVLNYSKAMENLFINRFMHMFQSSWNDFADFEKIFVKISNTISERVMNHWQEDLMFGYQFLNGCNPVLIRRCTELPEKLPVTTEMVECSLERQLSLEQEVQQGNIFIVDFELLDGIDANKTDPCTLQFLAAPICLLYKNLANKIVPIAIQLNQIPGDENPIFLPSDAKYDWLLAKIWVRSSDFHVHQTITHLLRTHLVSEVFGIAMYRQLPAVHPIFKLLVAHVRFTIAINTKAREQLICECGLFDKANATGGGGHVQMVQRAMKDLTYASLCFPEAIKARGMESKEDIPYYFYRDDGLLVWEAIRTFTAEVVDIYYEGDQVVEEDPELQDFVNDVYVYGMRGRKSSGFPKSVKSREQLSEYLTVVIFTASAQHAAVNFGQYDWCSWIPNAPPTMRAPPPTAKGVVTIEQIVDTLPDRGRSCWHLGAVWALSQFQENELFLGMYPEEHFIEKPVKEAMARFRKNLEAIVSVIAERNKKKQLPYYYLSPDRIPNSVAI
Put plainly: Activity of compounds against 5-LO enzyme (LTB4 measurement and/or fluorescence method). The following applies: 5-LO, single concentration of 10 uM in duplicate. Type of assay: biochemical. In outline: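 Two read-outs: LTB4 measured by EIA and/or LC/MS/MS with LTB4-d4 standard after 15 min RT compound preincubation with insect-cell 5-LO and a 5 min 37 °C reaction on 3 uM arachidonic acid (0.1 mM ATP, pH 7.4). The room-temperature fluorescence format used 20 uM H2DCFDA, 100 uM ATP, 3 uM arachidonic acid, 5 min; IC50 from 6/11-point curves.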
`CCc1nc2cc(Cl)ccn2c1C(=O)NCc1ccc(-c2ccccc2C)cc1` [compound 85, 7-Chloro-2-ethyl-N-((2′-methylbiphenyl-4-yl)methyl)imidazo[1,2-a]pyridine-3-carboxamide] yielded an inhibition at 10 µM greater than 69%.

The compound `CCc1nc2cc(Cl)ccn2c1C(=O)NCc1ccc(-c2cccc(C)c2)cc1` [compound 86, 7-Chloro-2-ethyl-N-((3′-methylbiphenyl-4-yl)methyl)imidazo[1,2-a]pyridine-3-carboxamide] showed an inhibition at 10 µM greater than 69%.

Take `CCc1nc2cc(Cl)ccn2c1C(=O)NCc1ccc(-c2ccc(C)cc2)cc1` [compound 87, 7-Chloro-2-ethyl-N-((4′-methylbiphenyl-4-yl)methyl)imidazo[1,2-a]pyridine-3-carboxamide]: the inhibition at 10 µM was 40 to 69%.

On to `CCc1nc2cc(Cl)ccn2c1C(=O)NCc1ccc(O)cc1` [compound 88, 7-Chloro-2-ethyl-N-(4-hydroxybenzyl)imidazo[1,2-a]pyridine-3-carboxamide], for which the inhibition at 10 µM was less than 40%.

In turn, `CCc1nc2cc(Cl)ccn2c1C(=O)NCc1ccc(N2CCCCC2)cc1` [compound 89, 7-Chloro-2-ethyl-N-(4-(piperidin-1-yl)benzyl)imidazo[1,2-a]pyridine-3-carboxamide] registered an inhibition at 10 µM of less than 40%.

As for `CCc1nc2cc(Cl)ccn2c1C(=O)NCc1ccc2ccccc2c1` [compound 90, 7-Chloro-2-ethyl-N-(naphthalen-2-ylmethyl)imidazo[1,2-a]pyridine-3-carboxamide], the inhibition at 10 µM was 40 to 69%.

`CCc1nc2cc(Cl)ccn2c1C(=O)NCc1ccc(-c2ccccc2)cc1` [compound 91, N-(Biphenyl-4-ylmethyl)-7-chloro-2-ethylimidazo[1,2-a]pyridine-3-carboxamide] showed an inhibition at 10 µM of 40 to 69%.

`CCc1nc2cc(Cl)ccn2c1C(=O)NCc1ccc(C(C)(C)C)cc1` [compound 92, N-(4-tert-Butylbenzyl)-7-chloro-2-ethylimidazo[1,2-a]pyridine-3-carboxamide] showed an inhibition at 10 µM of 40 to 69%.

`CCc1nc2cc(Cl)ccn2c1C(=O)NCc1ccc(Br)cc1` [compound 96, N-(4-Bromobenzyl)-7-chloro-2-ethylimidazo[1,2-a]pyridine-3-carboxamide] registered an inhibition at 10 µM of 40 to 69%.

Take `CCc1nc2ccc(Cl)cn2c1C(=O)NCc1ccc(-c2ccc(C#N)cc2)cc1` [compound 97, 6-Chloro-N-((4′-cyanobiphenyl-4-yl)methyl)-2-ethylimidazo[1,2-a]pyridine-3-carboxamide]: the inhibition at 10 µM was less than 40%.

With `CCc1nc2ccc(Cl)cn2c1C(=O)NCc1ccc(-c2ccccc2C(F)(F)F)cc1` [compound 98, 6-Chloro-2-ethyl-N-((2′-(trifluoromethyl)biphenyl-4-yl)methyl)imidazo[1,2-a]pyridine-3-carboxamide], the inhibition at 10 µM was 40 to 69%.

In turn, `CCc1nc2ccc(Cl)cn2c1C(=O)NCc1ccc(-c2cccc(C#N)c2)cc1` [compound 99, 6-Chloro-N-((3′-cyanobiphenyl-4-yl)methyl)-2-ethylimidazo[1,2-a]pyridine-3-carboxamide] had an inhibition at 10 µM of less than 40%.

`CCc1nc2ccc(Cl)cn2c1C(=O)NCc1ccc(-c2ccc(Cl)cc2C(F)(F)F)cc1` [compound 100, 6-Chloro-N-((4′-chloro-2′-(trifluoromethyl)biphenyl-4-yl)methyl)-2-ethylimidazo[1,2-a]pyridine-3-carboxamide] showed an inhibition at 10 µM greater than 69%.

Regarding `CCc1nc2cc(Cl)ccn2c1C(=O)NCc1ccc(-c2cccc(C#N)c2)cc1` [compound 101, 7-Chloro-N-((3′-cyanobiphenyl-4-yl)methyl)-2-ethylimidazo[1,2-a]pyridine-3-carboxamide], the inhibition at 10 µM lay in the range of 40 to 69%.

On to `CCc1nc2cc(Cl)ccn2c1C(=O)NCc1ccc(-c2ccccc2C(F)(F)F)cc1` [compound 102, 7-Chloro-2-ethyl-N-((2′-(trifluoromethyl)biphenyl-4-yl)methyl)imidazo[1,2-a]pyridine-3-carboxamide], for which the inhibition at 10 µM was in the range of 40 to 69%.

`CCc1nc2cc(Cl)ccn2c1C(=O)NCc1ccc(-c2ccc(Cl)cc2C(F)(F)F)cc1` [compound 103, 7-Chloro-N-((4′-chloro-2′-(trifluoromethyl)biphenyl-4-yl)methyl)-2-ethylimidazo[1,2-a]pyridine-3-carboxamide] came in with an inhibition at 10 µM greater than 69%.

Turning to `CCc1nc2ccc(Cl)cn2c1C(=O)NCc1ccc(-c2ccc(C#N)cc2C)cc1` [compound 104, 6-Chloro-N-((4′-cyano-2′-methylbiphenyl-4-yl)methyl)-2-ethylimidazo[1,2-a]pyridine-3-carboxamide], the inhibition at 10 µM lay in the range of 40 to 69%.

`CCc1nc2ccc(Cl)cn2c1C(=O)NCc1ccc(N2CCN(C)CC2)cc1` [compound 105, 6-Chloro-2-ethyl-N-(4-(4-methylpiperazin-1-yl)benzyl)imidazo[1,2-a]pyridine-3-carboxamide] registered an inhibition at 10 µM of less than 40%.

Consider `CCc1nc2cc(Cl)ccn2c1C(=O)NCc1ccc(-c2ccccc2C#N)cc1` [compound 106, 7-Chloro-N-((2′-cyanobiphenyl-4-yl)methyl)-2-ethylimidazo[1,2-a]pyridine-3-carboxamide], for which the inhibition at 10 µM was 40 to 69%.

In turn, `CCc1nc2cc(Cl)ccn2c1C(=O)NCc1ccc(OC(F)(F)F)cc1` [compound 107, 7-Chloro-2-ethyl-N-(4-(trifluoromethoxy)benzyl)imidazo[1,2-a]pyridine-3-carboxamide] showed an inhibition at 10 µM of 40 to 69%.

In turn, `CCc1nc2cc(Cl)ccn2c1C(=O)NCc1ccc(N2CCN(C)CC2)cc1` [compound 108, 7-Chloro-2-ethyl-N-(4-(4-methylpiperazin-1-yl)benzyl)imidazo[1,2-a]pyridine-3-carboxamide] had an inhibition at 10 µM of less than 40%.

The compound `CCc1nc2cc(Cl)ccn2c1C(=O)NCc1ccc(-c2ccc(C#N)cc2C)cc1` [compound 109, 7-Chloro-N-((4′-cyano-2′-methylbiphenyl-4-yl)methyl)-2-ethylimidazo[1,2-a]pyridine-3-carboxamide] registered an inhibition at 10 µM of 40 to 69%.

`CCCCCNc1ccc(CNC(=O)c2c(CC)nc3cc(Cl)ccn23)cc1` [compound 110, 7-Chloro-2-ethyl-N-(4-(pentylamino)benzyl)imidazo[1,2-a]pyridine-3-carboxamide]: the inhibition at 10 µM was greater than 69%.

Turning to `CCc1nc2cc(Cl)ccn2c1C(=O)NCc1ccc(-c2ccc(C(F)(F)F)cc2)cc1` [compound 111, 7-Chloro-2-ethyl-N-((4′-(trifluoromethyl)biphenyl-4-yl)methyl)imidazo[1,2-a]pyridine-3-carboxamide], the inhibition at 10 µM is less than 40%.

Regarding `CCc1nc2cc(Cl)ccn2c1C(=O)NCc1ccc(-c2ccc(OC(F)(F)F)cc2)cc1` [compound 112, 7-Chloro-2-ethyl-N-((4′-(trifluoromethoxy)biphenyl-4-yl)methyl)imidazo[1,2-a]pyridine-3-carboxamide], the inhibition at 10 µM lay in the range of 40 to 69%.

On to `CCc1nc2cc(Cl)ccn2c1C(=O)NCc1ccc(-c2ccc(OC)cc2)cc1` [compound 113, 7-Chloro-2-ethyl-N-((4′-methoxybiphenyl-4-yl)methyl)imidazo[1,2-a]pyridine-3-carboxamide], for which the inhibition at 10 µM was in the range of 40 to 69%.

Regarding `CCc1nc2cc(Cl)ccn2c1C(=O)NCc1ccc(-c2ccc(C(C)(C)C)cc2)cc1` [compound 114, N-((4′-tert-Butylbiphenyl-4-yl)methyl)-7-chloro-2-ethylimidazo[1,2-a]pyridine-3-carboxamide], the inhibition at 10 µM was 40 to 69%.

`CCc1nc2cc(Cl)ccn2c1NC(=O)c1ccc(-c2ccccc2)cc1` [compound 115, N-(7-Chloro-2-ethylimidazo[1,2-a]pyridin-3-yl)biphenyl-4-carboxamide] showed an inhibition at 10 µM of 40 to 69%.

In turn, `CCc1nc2cc(Cl)ccn2c1NC(=O)Cc1ccc(-c2ccccc2)cc1` [compound 116, 2-(Biphenyl-4-yl)-N-(7-chloro-2-ethylimidazo[1,2-a]pyridin-3-yl)acetamide] showed an inhibition at 10 µM of 40 to 69%.

`CCc1nc2cc(Cl)ccn2c1C(=O)NCc1ccc(-n2cccc2)cc1` [compound 117, N-(4-(1H-Pyrrol-1-yl)benzyl)-7-chloro-2-ethylimidazo[1,2-a]pyridine-3-carboxamide] had an inhibition at 10 µM of less than 40%.

Turning to `CCc1nc2cc(OC)ccn2c1C(=O)NCc1ccc(OC(F)(F)F)cc1` [compound 118, 2-Ethyl-7-methoxy-N-(4-(trifluoromethoxy)benzyl)imidazo[1,2-a]pyridine-3-carboxamide], the inhibition at 10 µM is less than 40%.

`CCc1nc2cc(Cl)ccn2c1C(=O)NCc1ccc(-c2ccc(OC)cn2)cc1` [compound 119, 7-Chloro-2-ethyl-N-(4-(5-methoxypyridin-2-yl)benzyl)imidazo[1,2-a]pyridine-3-carboxamide]: the inhibition at 10 µM was 40 to 69%.

The assay is the same for the next values; noted with them: 6 or 11 point dose response in duplicate.
`CCc1nc2cc(Cl)ccn2c1C(=O)NCc1ccc(-c2cccc(C)c2)cc1` [compound 86, 7-Chloro-2-ethyl-N-((3′-methylbiphenyl-4-yl)methyl)imidazo[1,2-a]pyridine-3-carboxamide] gave a 50% inhibitory concentration (IC50) of 1 to 20 µM.

`CCc1nc2ccc(Cl)cn2c1C(=O)NCc1ccc(-c2ccc(Cl)cc2C(F)(F)F)cc1` [compound 100, 6-Chloro-N-((4′-chloro-2′-(trifluoromethyl)biphenyl-4-yl)methyl)-2-ethylimidazo[1,2-a]pyridine-3-carboxamide] came in with an IC50 of 1 to 20 µM.

`CCc1nc2cc(Cl)ccn2c1C(=O)NCc1ccc(-c2ccc(Cl)cc2C(F)(F)F)cc1` [compound 103, 7-Chloro-N-((4′-chloro-2′-(trifluoromethyl)biphenyl-4-yl)methyl)-2-ethylimidazo[1,2-a]pyridine-3-carboxamide]: the IC50 was 1 to 20 µM.

`CCCCCNc1ccc(CNC(=O)c2c(CC)nc3cc(Cl)ccn23)cc1` [compound 110, 7-Chloro-2-ethyl-N-(4-(pentylamino)benzyl)imidazo[1,2-a]pyridine-3-carboxamide]: the IC50 was greater than 20 µM.

The values above are taken from patent US9029389B2 (Institut Pasteur Korea, priority 2011, dated 2015).
